Experimental data reported in ChEMBL document CHEMBL4725375, “Total synthesis and a systematic structure-activity relationship study of WAP-8294A2” (2020).
≈ marks a conversion by molar mass, not a printed value.

Tests used:
Staphylococcus aureus [1] = assay: Antibacterial activity against Staphylococcus aureus ATCC 29213 by CLSI M07-A8 protocol based microdilution method; assay type: functional
Staphylococcus aureus [2] = assay: Antibacterial activity against methicillin-resistant Staphylococcus aureus SA86 by CLSI M07-A8 protocol based microdilution method; assay type: functional

Row | SMILES | MIC (Staphylococcus aureus [1]) [µg/mL] | MIC (Staphylococcus aureus [2]) [µg/mL]
1 | CC(C)CCC[C@@H]1CC(=O)N[C@@H](CO)C(=O)N[C@H](CC(N)=O)C(=O)N[C@@H](C)C(=O)NCC(=O)N(C)[C@H](Cc2ccccc2)C(=O)N[C@@H](CC(C)C)C(=O)N[C@H](CCCN)C(=O)N[C@@H](CCC(=O)O)C(=O)N[C@H](CC(N)=O)C(=O)N[C@H](Cc2c[nH]c3ccccc23)C(=O)N[C@H](CCCN)C(=O)N(C)[C@@H](C(C)C)C(=O)O1 | 2 (≈ 1.31 µM) | 2 (≈ 1.31 µM)
2 | CC(C)CCC[C@@H]1CC(=O)N[C@@H](CO)C(=O)N[C@H](CC(N)=O)C(=O)N[C@@H](CO)C(=O)NCC(=O)N(C)[C@H](Cc2ccccc2)C(=O)N[C@@H](CC(C)C)C(=O)N[C@H](Cc2c[nH]cn2)C(=O)N[C@@H](CCC(=O)O)C(=O)N[C@H](CC(N)=O)C(=O)N[C@H](Cc2c[nH]c3ccccc23)C(=O)N[C@H](CCCN)C(=O)N(C)[C@@H](C(C)C)C(=O)O1 | 2 (≈ 1.27 µM) | 2 (≈ 1.27 µM)
3 | CC(C)CCC[C@@H]1CC(=O)N[C@@H](CO)C(=O)N[C@H](CC(N)=O)C(=O)N[C@@H](CO)C(=O)NCC(=O)N(C)[C@H](Cc2ccccc2)C(=O)N[C@@H](CC(C)C)C(=O)N[C@H](CCCN)C(=O)N[C@@H](CCC(=O)O)C(=O)N[C@H](CC(N)=O)C(=O)N[C@H](C)C(=O)N[C@H](CCCN)C(=O)N(C)[C@@H](C(C)C)C(=O)O1 | ≥ 32 | ≥ 32
4 | CC(C)CCC[C@@H]1CC(=O)N[C@@H](CO)C(=O)N[C@H](CC(N)=O)C(=O)N[C@@H](CO)C(=O)NCC(=O)N(C)[C@H](Cc2ccccc2)C(=O)N[C@@H](CCCCN)C(=O)N[C@H](CCCN)C(=O)N[C@@H](CCC(=O)O)C(=O)N[C@H](CC(N)=O)C(=O)N[C@H](Cc2c[nH]c3ccccc23)C(=O)N[C@H](CCCN)C(=O)N(C)[C@@H](C(C)C)C(=O)O1 | ≥ 32 | ≥ 32
5 | CC(C)CCC[C@@H]1CC(=O)N[C@@H](CO)C(=O)N[C@H]([C@H](O)C(N)=O)C(=O)N[C@@H](CO)C(=O)NCC(=O)N(C)[C@H](Cc2ccccc2)C(=O)N[C@@H](CC(C)C)C(=O)N[C@H](CCCN)C(=O)N[C@@H](CCC(=O)O)C(=O)N[C@H](CC(N)=O)C(=O)N[C@H](Cc2c[nH]c3ccccc23)C(=O)N[C@H](CCCN)C(=O)N(C)[C@@H](C(C)C)C(=O)O1 | 1 (≈ 0.64 µM) | 1 (≈ 0.64 µM)
6 | CC(C)CCC[C@@H]1CC(=O)N[C@@H](C)C(=O)N[C@H](CC(N)=O)C(=O)N[C@@H](CO)C(=O)NCC(=O)N(C)[C@H](Cc2ccccc2)C(=O)N[C@@H](CC(C)C)C(=O)N[C@H](CCCN)C(=O)N[C@@H](CCC(=O)O)C(=O)N[C@H](CC(N)=O)C(=O)N[C@H](Cc2c[nH]c3ccccc23)C(=O)N[C@H](CCCN)C(=O)N(C)[C@@H](C(C)C)C(=O)O1 | 2 (≈ 1.31 µM) | 2 (≈ 1.31 µM)
7 | CC(C)CCC[C@@H]1CC(=O)N[C@@H](CO)C(=O)N[C@H](CCCCN)C(=O)N[C@@H](CO)C(=O)NCC(=O)N(C)[C@H](Cc2ccccc2)C(=O)N[C@@H](CC(C)C)C(=O)N[C@H](CCCN)C(=O)N[C@@H](CCC(=O)O)C(=O)N[C@H](CC(N)=O)C(=O)N[C@H](Cc2c[nH]c3ccccc23)C(=O)N[C@H](CCCN)C(=O)N(C)[C@@H](C(C)C)C(=O)O1 | 2 (≈ 1.28 µM) | 1 (≈ 0.641 µM)
8 | CC(C)CCC[C@@H]1CC(=O)N[C@@H](CO)C(=O)N[C@H](CC(N)=O)C(=O)N[C@@H](CO)C(=O)NCC(=O)N(C)[C@H](Cc2ccccc2)C(=O)N[C@@H](CC(C)C)C(=O)N[C@H](C)C(=O)N[C@@H](CCC(=O)O)C(=O)N[C@H](CC(N)=O)C(=O)N[C@H](Cc2c[nH]c3ccccc23)C(=O)N[C@H](CCCN)C(=O)N(C)[C@@H](C(C)C)C(=O)O1 | ≥ 32 | ≥ 32
9 | CC(C)CCC[C@@H]1CC(=O)N[C@@H](CO)C(=O)N[C@H](CC(N)=O)C(=O)N[C@@H](CO)C(=O)NCC(=O)N(C)[C@H](Cc2ccccc2)C(=O)N[C@@H](CC(C)C)C(=O)N[C@H](CCCN)C(=O)N[C@@H](CCC(=O)O)C(=O)N[C@H](CCCCN)C(=O)N[C@H](Cc2c[nH]c3ccccc23)C(=O)N[C@H](CCCN)C(=O)N(C)[C@@H](C(C)C)C(=O)O1 | 1 (≈ 0.641 µM) | 1 (≈ 0.641 µM)
10 | CC(C)CCC[C@@H]1CC(=O)N[C@@H](CO)C(=O)N[C@H](CC(N)=O)C(=O)N[C@@H](CO)C(=O)NCC(=O)N(C)[C@H](Cc2ccccc2)C(=O)N[C@@H](CC(C)C)C(=O)N[C@H](CCCN)C(=O)N[C@@H](CCC(=O)O)C(=O)N[C@H](CC(N)=O)C(=O)N[C@H](Cc2c[nH]c3ccccc23)C(=O)N[C@H](CCCNC(=N)N)C(=O)N(C)[C@@H](C(C)C)C(=O)O1 | 1 (≈ 0.629 µM) | 2 (≈ 1.26 µM)
11 | CC(C)CCC[C@@H]1CC(=O)N[C@@H](CO)C(=O)N[C@H](CC(N)=O)C(=O)N[C@@H](CO)C(=O)NCC(=O)N(C)[C@H](Cc2ccccc2)C(=O)N[C@@H](CC(C)C)C(=O)N[C@H](CCCN)C(=O)N[C@@H](CCCCN)C(=O)N[C@H](CC(N)=O)C(=O)N[C@H](Cc2c[nH]c3ccccc23)C(=O)N[C@H](CCCN)C(=O)N(C)[C@@H](C(C)C)C(=O)O1 | 2 (≈ 1.29 µM) | 1 (≈ 0.647 µM)
12 | CC(C)CCC[C@@H]1CC(=O)N[C@@H](CO)C(=O)N[C@H](CC(N)=O)C(=O)N[C@@H](CO)C(=O)NCC(=O)N(C)[C@H](Cc2ccccc2)C(=O)N[C@@H](CC(C)C)C(=O)N[C@H](CCCN)C(=O)N[C@@H](CCC(=O)O)C(=O)N[C@H](CC(N)=O)C(=O)N[C@H](Cc2c[nH]c3ccccc23)C(=O)N[C@H](Cc2c[nH]cn2)C(=O)N(C)[C@@H](C(C)C)C(=O)O1 | 2 (≈ 1.27 µM) | 2 (≈ 1.27 µM)
13 | CC(C)CCC[C@@H]1CC(=O)N[C@@H](CO)C(=O)N[C@H](CC(N)=O)C(=O)N[C@@H](CCCCN)C(=O)NCC(=O)N(C)[C@H](Cc2ccccc2)C(=O)N[C@@H](CC(C)C)C(=O)N[C@H](CCCN)C(=O)N[C@@H](CCC(=O)O)C(=O)N[C@H](CC(N)=O)C(=O)N[C@H](Cc2c[nH]c3ccccc23)C(=O)N[C@H](CCCN)C(=O)N(C)[C@@H](C(C)C)C(=O)O1 | 4 (≈ 2.52 µM) | 2 (≈ 1.26 µM)
14 | CC(C)CCC[C@@H]1CC(=O)N[C@@H](CO)C(=O)N[C@H](CC(N)=O)C(=O)N[C@@H](CO)C(=O)NCC(=O)N[C@H](C)C(=O)N[C@@H](CC(C)C)C(=O)N[C@H](CCCN)C(=O)N[C@@H](CCC(=O)O)C(=O)N[C@H](CC(N)=O)C(=O)N[C@H](Cc2c[nH]c3ccccc23)C(=O)N[C@H](CCCN)C(=O)N(C)[C@@H](C(C)C)C(=O)O1 | ≥ 32 | ≥ 32
15 | CC(C)CCC[C@@H]1CC(=O)N[C@@H](CO)C(=O)N[C@H](CC(N)=O)C(=O)N[C@@H](CO)C(=O)NCC(=O)N(C)[C@H](Cc2ccccc2)C(=O)N[C@@H](CC(C)C)C(=O)N[C@H](CCCN)C(=O)N[C@@H](C)C(=O)N[C@H](CC(N)=O)C(=O)N[C@H](Cc2c[nH]c3ccccc23)C(=O)N[C@H](CCCN)C(=O)N(C)[C@@H](C(C)C)C(=O)O1 | 1 (≈ 0.672 µM) | 0.5 (≈ 0.336 µM)
16 | CC(C)CCC[C@@H]1CC(=O)N[C@@H](CO)C(=O)N[C@H](CC(N)=O)C(=O)N[C@@H](CO)C(=O)NCC(=O)N(C)[C@H](Cc2ccccc2)C(=O)N[C@@H](CC(C)C)C(=O)N[C@H](CCCN)C(=O)N[C@@H](CCC(=O)O)C(=O)N[C@H](CC(N)=O)C(=O)N[C@H](Cc2c[nH]c3ccccc23)C(=O)N[C@H](CCCN)C(=O)N[C@@H](C(C)C)C(=O)O1 | ≥ 32 | ≥ 32
17 | CC(C)CCC[C@@H]1CC(=O)N[C@@H](CO)C(=O)N[C@H](CC(N)=O)C(=O)N[C@@H](CO)C(=O)NCC(=O)N(C)[C@H](Cc2ccccc2)C(=O)N[C@@H](CC(C)C)C(=O)N[C@H](CCCCN)C(=O)N[C@@H](CCC(=O)O)C(=O)N[C@H](CC(N)=O)C(=O)N[C@H](Cc2c[nH]c3ccccc23)C(=O)N[C@H](CCCN)C(=O)N(C)[C@@H](C(C)C)C(=O)O1 | 1 (≈ 0.641 µM) | 2 (≈ 1.28 µM)
18 | CC(C)CCC[C@@H]1CC(=O)N[C@@H](CCCCN)C(=O)N[C@H](CC(N)=O)C(=O)N[C@@H](CO)C(=O)NCC(=O)N(C)[C@H](Cc2ccccc2)C(=O)N[C@@H](CC(C)C)C(=O)N[C@H](CCCN)C(=O)N[C@@H](CCC(=O)O)C(=O)N[C@H](CC(N)=O)C(=O)N[C@H](Cc2c[nH]c3ccccc23)C(=O)N[C@H](CCCN)C(=O)N(C)[C@@H](C(C)C)C(=O)O1 | 2 (≈ 1.26 µM) | 2 (≈ 1.26 µM)
19 | CC(C)CCC[C@@H]1CC(=O)N[C@@H](CO)C(=O)N[C@H](CC(N)=O)C(=O)N[C@@H](CO)C(=O)NCC(=O)N(C)[C@H](Cc2ccccc2)C(=O)N[C@@H](CC(C)C)C(=O)N[C@H](CCCN)C(=O)N[C@@H](CCC(=O)O)C(=O)N[C@H](C)C(=O)N[C@H](Cc2c[nH]c3ccccc23)C(=O)N[C@H](CCCN)C(=O)N(C)[C@@H](C(C)C)C(=O)O1 | 2 (≈ 1.33 µM) | 1 (≈ 0.665 µM)
20 | CC(C)CCC[C@@H]1CC(=O)N[C@@H](CO)C(=O)N[C@H](CC(N)=O)C(=O)N[C@@H](CO)C(=O)N[C@@H](C)C(=O)N(C)[C@H](Cc2ccccc2)C(=O)N[C@@H](CC(C)C)C(=O)N[C@H](CCCN)C(=O)N[C@@H](CCC(=O)O)C(=O)N[C@H](CC(N)=O)C(=O)N[C@H](Cc2c[nH]c3ccccc23)C(=O)N[C@H](CCCN)C(=O)N(C)[C@@H](C(C)C)C(=O)O1 | ≥ 32 | ≥ 32
